Source: the NIST ThermoML archive (doi:10.1021/je050021e)

Assay: xn = mol fraction of the nth substance listed
Conditions: Liquid

COCCOCCOCCOC [2,5,8,11-tetraoxadodecane] + O
Conditions | mass density, 101.3 kPa [kg/m3] | viscosity, 101 kPa [mPa·s]
303.15 K, x1 = 0.0198 | 1004.97 | 1.38
303.15 K, x1 = 0.05 | 1015.35 | 2.38
303.15 K, x1 = 0.07 | 1019.1 | 2.99
303.15 K, x1 = 0.1 | 1020.68 | 3.6
303.15 K, x1 = 0.2 | 1012.62 | 3.76
303.15 K, x1 = 0.3 | 1002.98 | 3.13
303.15 K, x1 = 0.4 | 995.48 | 2.67
303.15 K, x1 = 0.5 | 990.09 | 2.38
303.15 K, x1 = 0.6 | 985.94 | 2.14
303.15 K, x1 = 0.7 | 982.66 | 1.99
303.15 K, x1 = 0.8 | 979.8 | 1.9
303.15 K, x1 = 0.9 | 977.61 | 1.82
303.15 K, x1 = 1 | 975.86 | 1.77
313.15 K, x1 = 0.0198 | 1000.31 | 1.09
313.15 K, x1 = 0.05 | 1008.77 | 1.79
313.15 K, x1 = 0.07 | 1011.54 | 2.19
313.15 K, x1 = 0.1 | 1012.19 | 2.6
313.15 K, x1 = 0.2 | 1003.21 | 2.8
313.15 K, x1 = 0.3 | 993.51 | 2.39
313.15 K, x1 = 0.4 | 985.98 | 2.09
313.15 K, x1 = 0.5 | 980.57 | 1.94
313.15 K, x1 = 0.6 | 976.37 | 1.73
313.15 K, x1 = 0.7 | 973.09 | 1.65
313.15 K, x1 = 0.8 | 970.25 | 1.58
313.15 K, x1 = 0.9 | 968.06 | 1.51
313.15 K, x1 = 1 | 966.36 | 1.48
323.15 K, x1 = 0.0198 | 995.02 | 0.876
323.15 K, x1 = 0.05 | 1001.79 | 1.39
323.15 K, x1 = 0.07 | 1003.67 | 1.67
323.15 K, x1 = 0.1 | 1003.47 | 1.96
323.15 K, x1 = 0.2 | 993.71 | 2.1
323.15 K, x1 = 0.3 | 983.93 | 1.88
323.15 K, x1 = 0.4 | 976.37 | 1.69
323.15 K, x1 = 0.5 | 970.93 | 1.6
323.15 K, x1 = 0.6 | 966.77 | 1.44
323.15 K, x1 = 0.7 | 963.5 | 1.37
323.15 K, x1 = 0.8 | 960.68 | 1.32
323.15 K, x1 = 0.9 | 958.5 | 1.27
323.15 K, x1 = 1 | 956.85 | 1.26
333.15 K, x1 = 0.0198 | 989.18 | 0.728
333.15 K, x1 = 0.05 | 994.39 | –
333.15 K, x1 = 0.07 | 995.46 | 1.33
333.15 K, x1 = 0.1 | 994.52 | 1.53
333.15 K, x1 = 0.2 | 984.05 | 1.66
333.15 K, x1 = 0.3 | 974.23 | 1.52
333.15 K, x1 = 0.4 | 966.69 | 1.4
333.15 K, x1 = 0.5 | 961.2 | 1.3
333.15 K, x1 = 0.6 | 957.06 | 1.21
333.15 K, x1 = 0.7 | 953.78 | 1.16
333.15 K, x1 = 0.8 | 950.98 | 1.13
333.15 K, x1 = 0.9 | 948.9 | 1.1
333.15 K, x1 = 1 | 947.32 | 1.08
343.15 K, x1 = 0.0198 | 982.78 | 0.617
343.15 K, x1 = 0.05 | 986.6 | 0.922
343.15 K, x1 = 0.07 | 986.96 | 1.08
343.15 K, x1 = 0.1 | 985.33 | 1.24
343.15 K, x1 = 0.2 | 974.27 | 1.34
343.15 K, x1 = 0.3 | 964.41 | 1.26
343.15 K, x1 = 0.4 | 956.86 | 1.17
343.15 K, x1 = 0.5 | 951.36 | 1.1
343.15 K, x1 = 0.6 | 947.25 | 1.04
343.15 K, x1 = 0.7 | 943.99 | 0.998
343.15 K, x1 = 0.8 | 941.33 | 0.976
343.15 K, x1 = 0.9 | 939.3 | 0.952
343.15 K, x1 = 1 | 937.72 | 0.945

CC(=O)N1CCOCC1 [4-acetylmorpholine] + O
101 kPa
Conditions | mass density [kg/m3] | viscosity [mPa·s]
298.15 K, x1 = 0.05 | 1034.97 | 1.79
298.15 K, x1 = 0.07 | 1046.13 | 2.22
298.15 K, x1 = 0.1 | 1060.06 | 3.22
298.15 K, x1 = 0.2 | 1087.71 | 5.96
298.15 K, x1 = 0.3 | 1100.16 | 8.7
298.15 K, x1 = 0.4 | 1106 | 10.1
298.15 K, x1 = 0.5 | 1108.55 | 10.4
298.15 K, x1 = 0.6 | 1109.77 | 10.5
298.15 K, x1 = 0.7 | 1110.29 | 9.61
298.15 K, x1 = 0.8 | 1110.46 | 9.18
298.15 K, x1 = 0.9 | 1110.4 | 8.79
298.15 K, x1 = 1 | 1110.33 | 8.48
303.15 K, x1 = 0.05 | 1032.47 | 1.56
303.15 K, x1 = 0.07 | 1043.32 | 1.96
303.15 K, x1 = 0.1 | 1056.85 | 2.75
303.15 K, x1 = 0.2 | 1083.85 | 4.94
303.15 K, x1 = 0.3 | 1095.95 | 7.01
303.15 K, x1 = 0.4 | 1101.68 | 8.02
303.15 K, x1 = 0.5 | 1104.19 | 8.29
303.15 K, x1 = 0.6 | 1105.39 | 8.48
303.15 K, x1 = 0.7 | 1105.93 | 7.89
303.15 K, x1 = 0.8 | 1106.12 | 7.56
303.15 K, x1 = 0.9 | 1106.08 | 7.3
303.15 K, x1 = 1 | 1106 | 7.1
313.15 K, x1 = 0.05 | 1027.12 | 1.23
313.15 K, x1 = 0.07 | 1037.36 | 1.52
313.15 K, x1 = 0.1 | 1050.17 | 2.1
313.15 K, x1 = 0.2 | 1075.73 | 3.55
313.15 K, x1 = 0.3 | 1087.43 | 4.8
313.15 K, x1 = 0.4 | 1092.98 | 5.47
313.15 K, x1 = 0.5 | 1095.41 | 5.68
313.15 K, x1 = 0.6 | 1096.65 | 5.77
313.15 K, x1 = 0.7 | 1097.23 | 5.56
313.15 K, x1 = 0.8 | 1097.4 | 5.42
313.15 K, x1 = 0.9 | 1097.41 | 5.28
313.15 K, x1 = 1 | 1097.35 | 5.18
323.15 K, x1 = 0.05 | 1021.29 | 0.998
323.15 K, x1 = 0.07 | 1031.03 | 1.21
323.15 K, x1 = 0.1 | 1043.19 | 1.65
323.15 K, x1 = 0.2 | 1067.57 | 2.68
323.15 K, x1 = 0.3 | 1078.79 | 3.51
323.15 K, x1 = 0.4 | 1084.2 | 3.96
323.15 K, x1 = 0.5 | 1086.6 | 4.13
323.15 K, x1 = 0.6 | 1087.84 | 4.4
323.15 K, x1 = 0.7 | 1088.43 | 4.13
323.15 K, x1 = 0.8 | 1088.71 | 4.06
323.15 K, x1 = 0.9 | 1088.78 | 4
323.15 K, x1 = 1 | 1088.74 | 3.96
333.15 K, x1 = 0.05 | 1015.01 | 0.857
333.15 K, x1 = 0.07 | 1024.27 | 1.04
333.15 K, x1 = 0.1 | 1035.89 | 1.24
333.15 K, x1 = 0.2 | 1059.2 | 2.05
333.15 K, x1 = 0.3 | 1069.99 | 2.66
333.15 K, x1 = 0.4 | 1075.32 | 3
333.15 K, x1 = 0.5 | 1077.66 | 3.13
333.15 K, x1 = 0.6 | 1078.93 | 3.41
333.15 K, x1 = 0.7 | 1079.63 | 3.18
333.15 K, x1 = 0.8 | 1079.97 | 3.17
333.15 K, x1 = 0.9 | 1080.1 | 3.14
333.15 K, x1 = 1 | 1080.14 | 3.12
343.15 K, x1 = 0.05 | 1008.29 | 0.743
343.15 K, x1 = 0.07 | 1017.17 | 0.861
343.15 K, x1 = 0.1 | 1028.29 | 1.03
343.15 K, x1 = 0.2 | 1050.63 | 1.66
343.15 K, x1 = 0.3 | 1061.11 | 2.09
343.15 K, x1 = 0.4 | 1066.32 | 2.34
343.15 K, x1 = 0.5 | 1068.66 | 2.46
343.15 K, x1 = 0.6 | 1070 | 2.59
343.15 K, x1 = 0.7 | 1070.82 | 2.54
343.15 K, x1 = 0.8 | 1071.21 | 2.53
343.15 K, x1 = 0.9 | 1071.43 | 2.54
343.15 K, x1 = 1 | 1071.55 | 2.55
